Test results: US20260274892A1, “MACROCYCLIC BROAD SPECTRUM ANTIBIOTICS” (RQx Pharmaceuticals, Inc., priority 2017, published 2026)

Key:
[1] = tested on: Methicillin Resistant Staphylococcus aureus strain USA 200; assay: Minimum inhibitory concentration (MIC), CLSI broth micro-dilution, S. aureus; assay type: cell-based; details: Staphylococcus aureus, MRSA / USA200; Table 6; MRSA USA 200; cation adjusted Mueller Hinton Broth + 0.002% Tween-80; 35° C., 22 hours
How it was run: (§1)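 Antibacterial potency is measured as MIC by the CLSI broth dilution method. Bacteria at OD600 0.0005 in Tween-80-supplemented cation-adjusted Mueller Hinton broth face ten twofold compound dilutions for 22 h at 35° C.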

[2] = tested on: Escherichia coli ATCC 25922; assay: Minimum inhibitory concentration (MIC), CLSI broth micro-dilution, E. coli; assay type: cell-based; details: Escherichia coli, ATCC25922, 22 h, Table 6, cation adjusted Mueller Hinton Broth + 0.002% Tween-80, 35° C.
How it was run: as §1

SMILES	MIC [1] [µM]	MIC [2] [µM]
Cc1nc(-c2ccc(C(C)(C)C)cc2)ncc1C(=O)N[C@@H](CCO)C(=O)N(C)[C@@H]1C(=O)N[C@@H](C)C(=O)N[C@H](C(=O)NCC#N)Cc2ccc(OCCN)c(c2)-c2cc1ccc2OCCN (racemic) [Compound 459, rac-(8S,11S,14S)-3,18-bis(2-aminoethoxy)-N-(cyanomethyl)-11-methyl-14-[methyl-[rac-(2S)-2-[[2-(4-tert-butylphenyl)-4-methyl-pyrimidine-5-carbonyl]amino]-4-hydroxy-butanoyl]amino]-10,13-dioxo-9,12-diazatricyclo[13.3.1.12,6]icosa-1(18),2(20),3,5,15(19),16-hexaene-8-carboxamide]	0.083	0.71
CCCCCCc1ccc(C(=O)N2C[C@@H](CN)C[C@H]2C(=O)N(C)[C@@H]2C(=O)N[C@@H](C)C(=O)N[C@H](C(=O)NCC#N)Cc3ccc(OCCN)c(c3)-c3cc2ccc3OCCN)c(C)c1 (racemic) [Compound 461, rac-(8S,11S,14S)-3,18-bis(2-aminoethoxy)-N-(cyanomethyl)-11-methyl-14-[methyl-[rac-(2S,4R)-4-(aminomethyl)-1-(4-hexyl-2-methyl-benzoyl)pyrrolidine-2-carbonyl]amino]-10,13-dioxo-9,12-diazatricyclo[13.3.1.12,6]icosa-1(18),2(20),3,5,15(19),16-hexaene-8-carboxamide]	0.051	1.1
Cc1nc(-c2ccc(C(C)(C)C)cc2)ncc1C(=O)N[C@@H](CNC(=N)N)C(=O)N(C)[C@@H]1C(=O)N[C@@H](C)C(=O)N[C@H](C(=O)NCC#N)Cc2ccc(OCCN)c(c2)-c2cc1ccc2OCCN (racemic) [Compound 462, rac-(8S,11S,14S)-3,18-bis(2-aminoethoxy)-N-(cyanomethyl)-11-methyl-14-[methyl-[rac-(2S)-2-[[2-(4-tert-butylphenyl)-4-methyl-pyrimidine-5-carbonyl]amino]-3-guanidino-propanoyl]amino]-10,13-dioxo-9,12-diazatricyclo[13.3.1.12,6]icosa-1(18),2(20),3,5,15(19),16-hexaene-8-carboxamide]	0.027	5.4
Cc1nc(-c2ccc(C(C)(C)C)cc2)nc(C)c1C(=O)N[C@@H](C)C(=O)N[C@@H](CCN)C(=O)N(C)[C@@H]1C(=O)N[C@@H](C)C(=O)N[C@H](C(=O)NCC#N)Cc2ccc(OCCN)c(c2)-c2cc1ccc2OCCN (racemic) [Compound 464, rac-(8S,11S,14S)-3,18-bis(2-aminoethoxy)-N-(cyanomethyl)-11-methyl-14-[methyl-[rac-(2S)-4-amino-2-[[rac-(2S)-2-[[2-(4-tert-butylphenyl)-4,6-dimethyl-pyrimidine-5-carbonyl]amino]propanoyl]amino]butanoyl]amino]-10,13-dioxo-9,12-diazatricyclo[13.3.1.12,6]icosa-1(18),2(20),3,5,15(19),16-hexaene-8-carboxamide]	0.063	4
Cc1nc(-c2ccc(C(C)(C)C)cc2)nc(C)c1C(=O)N[C@@H](CO)C(=O)N[C@@H](CCN)C(=O)N(C)[C@@H]1C(=O)N[C@@H](C)C(=O)N[C@H](C(=O)NCC#N)Cc2ccc(OCCN)c(c2)-c2cc1ccc2OCCN (racemic) [Compound 465, rac-(8S,11S,14S)-3,18-bis(2-aminoethoxy)-N-(cyanomethyl)-11-methyl-14-[methyl-[rac-(2S)-4-amino-2-[[rac-(2S)-2-[[2-(4-tert-butylphenyl)-4,6-dimethyl-pyrimidine-5-carbonyl]amino]-3-hydroxy-propanoyl]amino]butanoyl]amino]-10,13-dioxo-9,12-diazatricyclo[13.3.1.12,6]icosa-1(18),2(20),3,5,15(19),16-hexaene-8-carboxamide]	0.047	4
